# What was measured:
# Type in all cases: cell-based
# [1] = test system: erythrocytes in whole blood; test: Erythrocyte sedimentation in whole blood: sucralose concentration and other saccharides, visual analysis (Example 2); conditions: K2EDTA blood, 1 hour and 6 hours
# Protocol: Fresh blood was collected into BD K2EDTA VACUTAINER® tubes and pooled. 952 μL of fresh blood was aliquot into 2 mL centrifuge tubes, each containing 48 μL of sucralose at the indicated concentration in FIG. 2, or the indicated saccharide (ML848, a di-chlorinated monosaccharide, or DG783, a mono-fluorinated monosaccharide) at the indicated concentration. Sucralose solutions of different concentrations were prepared by dilution of 0.5 M sucralose to 10 mM in water. […] 48 μL of PBS and 0.9% saline served as controls. Final concentrations of sucralose or the indicated saccharide shown in FIG. 2 were as follows (from left to right): 24 mM sucralose, 12 mM sucralose, 6.24 mM sucralose, 2.88 mM sucralose, 1.44 mM sucralose, 0.96 mM sucralose, 0.48 mM sucralose, 24 mM sucrose, 2.4 mM sucrose, 24 mM trehalose, 24 mM melezitose, 4.8 mM ML848, and 24 mM DG783.
# (§1) The filled centrifuge tubes were gently inverted five times to mix and stored upright on the benchtop at approximately 25° C. Tubes were photographed at 1 hour (FIG. 2, upper panel) and 6 hours (FIG. 2, center panel) against a white background for visual analysis of sedimentation rate. After 7 hours of storage, tubes were centrifuged for 20 min at 3000 rpm to determine the effect of hemolysis on sedimentation rate by visual analysis (FIG. 2, lower panel).
# [2] = test system: erythrocytes in whole blood; test: Hemolysis by centrifugation after 7 hours of storage, visual analysis (Example 2)
# Protocol: as §1
# [3] = test system: erythrocytes in whole blood; test: Erythrocyte sedimentation in whole blood collected with different anticoagulants, visual analysis (Example 4); conditions: final 24 mM sucralose; ACD-B, K3EDTA, NaHep, LiHep, NaF, SPS, K2EDTA tubes; 2 hours and 8 hours
# Description: To screen for collection conditions, fresh blood was collected into a series of BD VACUTAINER® or Greiner Bio-One VACUETTE® low-volume blood collection tubes containing different anticoagulants, including acid citrate dextrose solution B (ACD-B), tri-potassium ethylenediaminetetraacetic acid (K3EDTA), sodium heparin (NaHep), lithium heparin (LiHep), sodium fluoride (NaF), and sodium polyanethol sulfonate (SPS). Collection into tubes containing di-potassium ethylenediaminetetraacetic acid (K2EDTA) served as a control. 952 μL of fresh blood was aliquot into 2 mL centrifuge tubes containing 48 μL of 0.5 M sucralose or PBS. No formulation (NF) added served as an additional control. The filled centrifuge tubes were gently inverted five times to mix and stored upright on the benchtop at approximately 25° C. Tubes were photographed at 2 hours (FIG. 4, upper panel) and 8 hours (FIG. 4, lower panel) against a white background for visual analysis of sedimentation rate. […] By contrast, addition of PBS had no effect on erythrocyte sedimentation rate.
# [4] = test system: erythrocytes in whole blood; test: Erythrocyte sedimentation in whole blood after addition of sucralose powder, visual analysis (Example 3)
# Protocol: Fresh blood was collected into BD K2EDTA VACUTAINER® tubes and pooled. 1 mL of fresh blood was aliquotted into 2 mL centrifuge tubes containing sucralose powder. Final concentrations of sucralose ranged from 7.5 mM to 100 mM, corresponding to 3.0 mg to 39.8 mg per mL of blood. The no formulation (NF) control sample received no addition of sucralose. Tubes were inverted at least five times until no visible undissolved material remained at the bottom of the tubes. Tubes were stored upright on the benchtop at approximately 25° C. Tubes were photographed at 1 hour (FIG. 3, upper panel) and 6 hours (FIG. 3, lower panel) against a white background for visual analysis of sedimentation rate.
# [5] = test system: erythrocytes in whole blood; test: Erythrocyte sedimentation in whole blood after addition of sucralose solution, visual analysis (Example 1); conditions: about 24 mM sucralose (0.5 M solution, blood:solution 20:1), K2EDTA blood, ambient temperature, 6 hours and 24 hours
# Protocol: Fresh blood was collected into BD K2EDTA VACUTAINER® tubes and pooled. Blood and a solution of 0.5 M sucralose were mixed at a ratio of 20:1 by aliquotting 952 μL of fresh blood into 2 mL centrifuge tubes containing 48 μL of formulation, resulting in a concentration of about 24 mM sucralose. 48 μL of PBS and 0.9% saline served as controls. Blood with no formulation (NF) added served as an additional control. The filled centrifuge tubes were gently inverted five times to mix and stored upright on the benchtop at approximately 25° C. Tubes were photographed at 0 hours (FIG. 1A), 6 hours (FIG. 1B), and 24 hours (FIG. 1C) against a white background for visual analysis of sedimentation rate.
# [6] = test system: erythrocytes in whole blood; test: Erythrocyte sedimentation in whole blood: sucralose compared to polyols and halogenated polyols, visual analysis (Example 5); conditions: 0.5 M solution, final 24 mM sucralose, K2EDTA blood, 2 hours
# Protocol: Fresh blood was collected into BD K2EDTA VACUTAINER® tubes and pooled. 952 μL of fresh blood was aliquot into 2 mL centrifuge tubes containing 48 μL of a solution of 0.5 M sucralose, the indicated polyol, or the indicated halogenated polyol. Additives at 0.25 M were adjusted to 300 mOsmol with NaCl. PBS and no formulation (NF) added served as controls. The filled centrifuge tubes were gently inverted five times to mix and stored upright on the benchtop at approximately 25° C. Tubes were photographed at 2 hours against a white background for visual analysis of sedimentation rate.
# [7] = other saccharides, final: 24 mM and 2.4 mM sucrose, 24 mM trehalose, 24 mM melezitose, 4.8 mM ML848, 24 mM DG783
compound,measurement,setting,value
OC[C@H]1O[C@H](O[C@H]2O[C@H](CO)[C@@H](O)[C@H](O)[C@H]2O)[C@H](O)[C@@H](O)[C@@H]1O [trehalose],lower sedimentation rate of erythrocytes,[1]; [7],not observed
"OC[C@H]1O[C@H](O[C@]2(CCl)O[C@H](CCl)[C@@H](O)[C@@H]2O)[C@H](O)[C@@H](O)[C@H]1Cl [sucralose, 1,6-dichloro-1,6-dideoxy-β-D-fructofuranosyl-4-chloro-4-deoxy-α-D-galactopyranoside]",lower sedimentation rate of erythrocytes,[1]; final sucralose concentrations below 5 mM,not observed
same,sedimentation rate of erythrocytes,"[1]; high concentrations of sucralose, ambient temperature",lower sedimentation rate
same,hemolysis of erythrocytes (coloration of plasma layer after centrifugation),"[2]; high concentration of sucralose, 7 hours of storage, centrifuged 20 min at 3000 rpm",not due to excessive hemolysis
same,final sucralose concentrations at which significant hemolysis was not seen,[2]; whole blood,≤ 40 mM
same,erythrocyte sedimentation rate for each anticoagulant,[3],reduction of erythrocyte sedimentation rate
same,state of whole blood samples at lower concentrations of sucralose,"[4]; sucralose powder below 24 mM, ambient temperatures, 6 hours",separation of the erythrocyte and plasma layers
same,sucralose concentration at which homogeneity of whole blood samples was observed,"[4]; sucralose powder, ambient temperatures, 6 hours",≥ 24 mM
same,rate of erythrocyte sedimentation versus sucralose concentration,"[4]; sucralose powder, final 7.5 mM to 100 mM, K2EDTA blood, 1 hour and 6 hours",inversely proportional to the concentration of sucralose
same,"sedimentation rate of the erythrocytes compared to NF, PBS or saline",[5],lower sedimentation rate
same,erythrocyte sedimentation rate,[6],reduced erythrocyte sedimentation rate
OC[C@H]1O[C@@](CO)(O[C@H]2O[C@H](CO)[C@@H](O)[C@H](O)[C@H]2O)[C@@H](O)[C@@H]1O [sucrose],lower sedimentation rate of erythrocytes,[1]; [7],not observed
OC[C@H]1O[C@@](CO)(O[C@H]2O[C@H](CO)[C@@H](O)[C@H](O)[C@H]2O)[C@@H](O[C@H]2O[C@H](CO)[C@@H](O)[C@H](O)[C@H]2O)[C@@H]1O [melezitose],lower sedimentation rate of erythrocytes,[1]; [7],not observed
